PubChem BioAssay AID1963828 (Molecular Pharmacology Branch, DTP, NCI, 2024)

Tested on: 991263-137-R1-J2-PDC complex spheroid viability
Assay: Anticancer human tumor 991263-137-R1-J2-PDC patient-derived colon adenocarcinoma cell line growth inhibition [POLQ]
Details: for IC50: curve of first compound; for viability, T/C: stronger effect = lower value
Method: Multicellular complex tumor spheroid response to Polymerase (POL) inhibitors (novobiocin, ART-558, RP6685) in combination with a variety of drugs and investigational agents in selected tumor cell lines
The POL inhibitors (novobiocin, ART-558, and RP6685) were evaluated both individually and in combination with standard of care and investigational anticancer small molecules within a complex spheroid model of solid tumors. . Complex spheroids include a stromal component modeled by human endothelial cells (HUVEC) and fibroblasts modeled by human mesenchymal stem cells (MSCs). The concentration ranges selected for each drug and investigational agent were based upon clinically achievable concentrations if the clinical Cmax of the agent was known.
Compounds. The drugs and investigational agents: novobiocin (NSC847541), ART-558 (NSC835418), RP-6685 (NSC848927), peposertib (NSC802822), ceralasertib (NSC780249), elimusertib (NSC800525), camonsertib (NSC841442), AZD-1390 (NSC803789), olaparib (NSC753686), talazoparib (NSC767125), rucaparib (NSC756644), sotorasib (NSC818433), MRTX-1133 (NSC836407), SN-38 (NSC673596), topotecan (NSC609699), epotoside (NSC141540), doxorubicin (NSC123127), gemcitabine (NSC613327), 5-fluorouracil (NSC19893), paclitaxel (NSC125973), vemurafenib (NSC761431), MSA-2 (NSC828583), SN-011 (NSC837082), adavosertib (NSC754352), prexasertib (NSC758257), carboplatin (NSC241240) and oxaliplatin (NSC266046), were obtained from the National Cancer Institute (NCI) Developmental Therapeutics Program Chemical Repository (21). The FDA-approved anticancer drug set is available from the Developmental Therapeutics Program at https://dtp.cancer.gov/organization/dscb/obtaining/. […] The stock solutions were prepared in dimethyl sulfoxide (DMSO, Sigma-Aldrich, St. Louis, MO, cat. D2650), except for the platinum compounds which were prepared in saline (Quality Biological, Gaithersburg, MD, cat. 114-055-101), at 800-fold the tested concentration and stored at -70 degrees C prior to their use. All drugs and investigational agents were tested over a range starting from a high concentration at or near the clinical Cmax and decreasing in half-log increments. If the clinical Cmax for an agent had not been determined, the highest concentration tested was 10 microM, except for SN-38, which was tested at a high concentration of 1 microM.
Cell Culture. All cells were maintained in an incubator at 37 degrees C and 5% CO2 with 95% humidity. The PDC lines were cultured according to standard operating procedures established by the NCI PDMR (https://pdmr.cancer.gov). Table 3 of the manuscript, lists the cell lines along with the number of the three cell types plated to form the mct-spheroids and media for tumor cell growth. After thawing, all PDC lines, except 997537-175-T-J1-PDC and 415267-285-R-J2-PDC, were cultured in Matrigel-coated flasks prepared with a working solution of 1X Ham's F-12 nutrient mix, without supplementation (Thermo Fisher Scientific, cat. 11765054), 100 U/mL penicillin-streptomycin (Thermo Fisher Scientific, cat. 15140122), and 2.5% Matrigel (Corning Inc., Corning, NY, cat. 354248) for the first three passages. The two PDC lines 997537-175-T-J1-PDC and 415267-285-R-J2-PDC were cultured on uncoated flasks. The 857933-349-R-J2-PDC line was cultured in 6C/Colon 1B media containing advanced DMEM/F-12 (Thermo Fisher Scientific, cat. 12634028), 10 mM HEPES (Thermo Fisher Scientific, cat. 15630080), 1X GlutaMAX supplement (Thermo Fisher Scientific, cat. 35050061), 0.1 mg/mL primocin (InvivoGen, San Diego, CA, cat. ant-pm-2), 10% defined fetal bovine serum, heat inactivated (HyClone Laboratories Inc., Logan, UT, cat. SH30070.03HI), 50% L-WRN conditioned media (ATCC, cat. CRL-3276), 1.25 mM N-Acetyl-L-cysteine (Sigma-Aldrich, cat. A9165), 10 mM nicotinamide (Sigma-Aldrich, cat. N0636), 1X B-27 supplement (Thermo Fisher Scientific, cat. 17504044), 1X N-2 supplement (Thermo Fisher Scientific, cat. […]

[1] = second compound 0.0316 µM, first compound 0.0316 µM
[2] = second compound 0.0316 µM, first compound 0.1 µM
[3] = second compound 0.0316 µM, first compound 0.316 µM
[4] = second compound 0.0316 µM, first compound 1 µM
[5] = second compound 0.0316 µM, first compound 3.16 µM
[6] = second compound 0.0316 µM, first compound 10 µM
[7] = second compound 0.1 µM, first compound 0.0316 µM
[8] = second compound 0.1 µM, first compound 0.1 µM
[9] = second compound 0.1 µM, first compound 0.316 µM
[10] = second compound 0.1 µM, first compound 1 µM
[11] = second compound 0.1 µM, first compound 3.16 µM
[12] = second compound 0.1 µM, first compound 10 µM
[13] = second compound 0.316 µM, first compound 0.0316 µM
[14] = second compound 0.316 µM, first compound 0.1 µM
[15] = second compound 0.316 µM, first compound 0.316 µM
[16] = second compound 0.316 µM, first compound 1 µM
[17] = second compound 0.316 µM, first compound 3.16 µM
[18] = second compound 0.316 µM, first compound 10 µM
[19] = second compound 1 µM, first compound 0.0316 µM
[20] = second compound 1 µM, first compound 0.1 µM
[21] = second compound 1 µM, first compound 0.316 µM
[22] = second compound 1 µM, first compound 1 µM
[23] = second compound 1 µM, first compound 3.16 µM
[24] = second compound 1 µM, first compound 10 µM
[25] = second compound 3.16 µM, first compound 0.0316 µM
[26] = second compound 3.16 µM, first compound 0.1 µM
[27] = second compound 3.16 µM, first compound 0.316 µM
[28] = second compound 3.16 µM, first compound 1 µM
[29] = second compound 3.16 µM, first compound 3.16 µM
[30] = second compound 3.16 µM, first compound 10 µM
[31] = second compound 10 µM, first compound 0.0316 µM
[32] = second compound 10 µM, first compound 0.1 µM
[33] = second compound 10 µM, first compound 0.316 µM
[34] = second compound 10 µM, first compound 1 µM
[35] = second compound 10 µM, first compound 3.16 µM
[36] = second compound 10 µM, first compound 10 µM
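Also: spheroids exposed to compounds for 7 days before readout.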
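For viability, T/C in this document: 100% = DMSO vehicle control viability.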

C#Cc1c(F)ccc2cc(O)cc(-c3ncc4c(N5CC6CCC(C5)N6)nc(OCC56CCCN5CC(F)C6)nc4c3F)c12 (centres undefined) + Cc1cccc(N(C)C(=O)C2C(O)CCN2c2nc(C)cc(C(F)(F)F)c2C#N)c1
IC50 (second compound 0.0316 µM): > 10 µM
IC50 (second compound 0.1 µM): > 10 µM
IC50 (second compound 0.316 µM): > 10 µM
IC50 (second compound 1 µM): > 10 µM
IC50 (second compound 3.16 µM): > 10 µM
IC50 (second compound 10 µM): > 10 µM
viability, T/C [1]: 110%
viability, T/C [2]: 95.5%
viability, T/C [3]: 104%
viability, T/C [4]: 104%
viability, T/C [5]: 92.9%
viability, T/C [6]: 100%
viability, T/C [7]: 97.8%
viability, T/C [8]: 104%
viability, T/C [9]: 109%
viability, T/C [10]: 76.1%
viability, T/C [11]: 106%
viability, T/C [12]: 92.2%
viability, T/C [13]: 101%
viability, T/C [14]: 106%
viability, T/C [15]: 89.8%
viability, T/C [16]: 93.5%
viability, T/C [17]: 97.7%
viability, T/C [18]: 95.8%
viability, T/C [19]: 93.8%
viability, T/C [20]: 95%
viability, T/C [21]: 103%
viability, T/C [22]: 95.6%
viability, T/C [23]: 99.9%
viability, T/C [24]: 98.2%
viability, T/C [25]: 95%
viability, T/C [26]: 117%
viability, T/C [27]: 121%
viability, T/C [28]: 93.2%
viability, T/C [29]: 98.7%
viability, T/C [30]: 105%
viability, T/C [31]: 94.8%
viability, T/C [32]: 102%
viability, T/C [33]: 106%
viability, T/C [34]: 90.1%
viability, T/C [35]: 106%
viability, T/C [36]: 79.7%

CC1COCCN1c1cc(C2(S(C)(=N)=O)CC2)nc(-c2ccnc3[nH]ccc23)n1 (centres undefined) + Cc1cccc(N(C)C(=O)C2C(O)CCN2c2nc(C)cc(C(F)(F)F)c2C#N)c1
IC50 (second compound 0.0316 µM): > 10 µM
IC50 (second compound 0.1 µM): > 10 µM
IC50 (second compound 0.316 µM): > 10 µM
IC50 (second compound 1 µM): > 10 µM
IC50 (second compound 3.16 µM): > 10 µM
IC50 (second compound 10 µM): > 10 µM
viability, T/C [1]: 96.9%
viability, T/C [2]: 107%
viability, T/C [3]: 122%
viability, T/C [4]: 104%
viability, T/C [5]: 111%
viability, T/C [6]: 90.9%
viability, T/C [7]: 101%
viability, T/C [8]: 103%
viability, T/C [9]: 95%
viability, T/C [10]: 96.2%
viability, T/C [11]: 117%
viability, T/C [12]: 106%
viability, T/C [13]: 95.7%
viability, T/C [14]: 108%
viability, T/C [15]: 73.7%
viability, T/C [16]: 112%
viability, T/C [17]: 84%
viability, T/C [18]: 70%
viability, T/C [19]: 98.7%
viability, T/C [20]: 102%
viability, T/C [21]: 94.3%
viability, T/C [22]: 75.4%
viability, T/C [23]: 96.7%
viability, T/C [24]: 92.5%
viability, T/C [25]: 88.1%
viability, T/C [26]: 95.2%
viability, T/C [27]: 99.2%
viability, T/C [28]: 106%
viability, T/C [29]: 101%
viability, T/C [30]: 101%
viability, T/C [31]: 93.2%
viability, T/C [32]: 97%
viability, T/C [33]: 98.8%
viability, T/C [34]: 98.5%
viability, T/C [35]: 98.8%
viability, T/C [36]: 77%
